Data from PubChem BioAssay (NCI).
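Cultured in 96-well plates, cells were exposed to test compound for 48 hours across five concentrations. Abbreviation: GI50, concentration required for 50% inhibition of growth. Definition used: TGI = concentration required for complete inhibition of growth.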

Assays:
Assay in all cases: growth of human tumour cells (NCI), 48 h
786-0 renal = tested on: 786-0 renal
A498 renal = tested on: A498 renal
A549 NSCLC = tested on: A549 NSCLC
ACHN renal = tested on: ACHN renal
BT-549 breast = tested on: BT-549 breast
CAKI-1 renal = tested on: CAKI-1 renal
CCRF-CEM leukemia = tested on: CCRF-CEM leukemia
COLO 205 colon = tested on: COLO 205 colon
DU-145 prostate = tested on: DU-145 prostate
EKVX NSCLC = tested on: EKVX NSCLC
HCT-116 colon = tested on: HCT-116 colon
HCT-15 colon = tested on: HCT-15 colon
HL-60(TB) leukemia = tested on: HL-60(TB) leukemia
HOP-62 NSCLC = tested on: HOP-62 NSCLC
HOP-92 NSCLC = tested on: HOP-92 NSCLC
HS 578T breast = tested on: HS 578T breast
HT29 colon = tested on: HT29 colon
IGROV1 ovarian = tested on: IGROV1 ovarian
K-562 leukemia = tested on: K-562 leukemia
KM12 colon = tested on: KM12 colon
LOX IMVI melanoma = tested on: LOX IMVI melanoma
M14 melanoma = tested on: M14 melanoma
MALME-3M melanoma = tested on: MALME-3M melanoma
MCF7 breast = tested on: MCF7 breast
MDA-MB-231 breast = tested on: MDA-MB-231 breast
MDA-MB-435 = tested on: MDA-MB-435
MOLT-4 leukemia = tested on: MOLT-4 leukemia
NCI-H226 lung = tested on: NCI-H226 lung
NCI-H23 lung = tested on: NCI-H23 lung
NCI-H460 lung = tested on: NCI-H460 lung
NCI-H522 lung = tested on: NCI-H522 lung
NCI/ADR-RES ovarian = tested on: NCI/ADR-RES ovarian
OVCAR-3 ovarian = tested on: OVCAR-3 ovarian
OVCAR-4 ovarian = tested on: OVCAR-4 ovarian
OVCAR-5 ovarian = tested on: OVCAR-5 ovarian
OVCAR-8 ovarian = tested on: OVCAR-8 ovarian
PC-3 prostate = tested on: PC-3 prostate
RXF 393 renal = tested on: RXF 393 renal
SF-268 CNS = tested on: SF-268 CNS
SF-295 CNS = tested on: SF-295 CNS
SK-MEL-2 melanoma = tested on: SK-MEL-2 melanoma
SK-MEL-28 melanoma = tested on: SK-MEL-28 melanoma
SK-OV-3 ovarian = tested on: SK-OV-3 ovarian
SN12C renal = tested on: SN12C renal
SNB-19 CNS = tested on: SNB-19 CNS
SNB-75 CNS = tested on: SNB-75 CNS
SW-620 colon = tested on: SW-620 colon
T-47D breast = tested on: T-47D breast
TK-10 renal = tested on: TK-10 renal
U251 CNS = tested on: U251 CNS
UACC-257 melanoma = tested on: UACC-257 melanoma
UACC-62 melanoma = tested on: UACC-62 melanoma
UO-31 renal = tested on: UO-31 renal

## COc1cc2c3c(n(CCCNCCCNCCCNCCCN)c(=O)c2cc1OC)-c1cc2c(cc1C3=O)OCO2
786-0 renal
  GI50: 2.31 µM
  TGI: 7.68 µM
A498 renal
  GI50: 3.14 µM
  TGI: 12.1 µM
A549 NSCLC
  GI50: 2.2 µM
  TGI: 11.7 µM
ACHN renal
  GI50: 3.1 µM
  TGI: 12 µM
BT-549 breast
  GI50: 2.2 µM
  TGI: 6.44 µM
CAKI-1 renal
  GI50: 1.78 µM
  TGI: 3.8 µM
CCRF-CEM leukemia
  GI50: 0.301 µM
  TGI: 2.16 µM
COLO 205 colon
  GI50: 1.49 µM
  TGI: > 100 µM
DU-145 prostate
  GI50: 1.42 µM
  TGI: 4.19 µM
EKVX NSCLC
  GI50: 1.18 µM
  TGI: 3.5 µM
HCT-116 colon
  GI50: 1.5 µM
  TGI: 3.13 µM
HCT-15 colon
  GI50: 6.77 µM
  TGI: 29 µM
HL-60(TB) leukemia
  GI50: 1.36 µM
  TGI: 3.3 µM
HOP-62 NSCLC
  GI50: 3.01 µM
  TGI: 13 µM
HOP-92 NSCLC
  GI50: 2.74 µM
  TGI: 9.64 µM
HS 578T breast
  GI50: 2.78 µM
  TGI: 8.42 µM
HT29 colon
  GI50: 2.28 µM
  TGI: 16.4 µM
IGROV1 ovarian
  GI50: 3.72 µM
  TGI: > 100 µM
K-562 leukemia
  GI50: 2.05 µM
  TGI: 5.22 µM
KM12 colon
  GI50: 1.73 µM
  TGI: 4.03 µM
LOX IMVI melanoma
  GI50: 1.15 µM
  TGI: 3.25 µM
M14 melanoma
  GI50: 2.84 µM
  TGI: 14.2 µM
MALME-3M melanoma
  GI50: 0.318 µM
  TGI: 1.29 µM
MCF7 breast
  GI50: 0.712 µM
  TGI: 2.47 µM
MDA-MB-231 breast
  GI50: 2.43 µM
  TGI: 7.79 µM
MDA-MB-435
  GI50: 1.45 µM
  TGI: 3.18 µM
MOLT-4 leukemia
  GI50: 0.369 µM
  TGI: 2.57 µM
NCI-H226 lung
  GI50: 2.92 µM
  TGI: 7.26 µM
NCI-H23 lung
  GI50: 1.5 µM
  TGI: 3.86 µM
NCI-H460 lung
  GI50: 1.32 µM
  TGI: 4.25 µM
NCI-H522 lung
  GI50: 3.61 µM
  TGI: > 100 µM
NCI/ADR-RES ovarian
  GI50: 1.83 µM
  TGI: 3.22 µM
OVCAR-3 ovarian
  GI50: 1.57 µM
  TGI: 3.88 µM
OVCAR-4 ovarian
  GI50: 4.34 µM
  TGI: 58 µM
OVCAR-5 ovarian
  GI50: 1.76 µM
  TGI: 5.63 µM
OVCAR-8 ovarian
  GI50: 2.19 µM
  TGI: 10.8 µM
PC-3 prostate
  GI50: 3.31 µM
  TGI: 14.8 µM
RXF 393 renal
  GI50: 1.7 µM
  TGI: 4.46 µM
SF-268 CNS
  GI50: 1.7 µM
  TGI: 4.33 µM
SF-295 CNS
  GI50: 1.38 µM
  TGI: 3.97 µM
SK-MEL-2 melanoma
  GI50: 4.78 µM
  TGI: 89 µM
SK-MEL-28 melanoma
  GI50: 2.29 µM
  TGI: 25.2 µM
SK-OV-3 ovarian
  GI50: 8.52 µM
  TGI: > 100 µM
SN12C renal
  GI50: 1.56 µM
  TGI: 9.35 µM
SNB-19 CNS
  GI50: 2.23 µM
  TGI: 15.4 µM
SNB-75 CNS
  GI50: 2.98 µM
  TGI: 13.6 µM
SW-620 colon
  GI50: 2.18 µM
  TGI: 13.9 µM
T-47D breast
  GI50: 2.36 µM
  TGI: > 100 µM
TK-10 renal
  GI50: 2.8 µM
  TGI: 5.8 µM
U251 CNS
  GI50: 1.33 µM
  TGI: 3.81 µM
UACC-257 melanoma
  GI50: 3.72 µM
  TGI: 17.2 µM
UACC-62 melanoma
  GI50: 1.68 µM
  TGI: 6.19 µM
UO-31 renal
  GI50: 7.39 µM
  TGI: > 100 µM
